A word on the IC50: it is the concentration that inhibits the measured activity by half.

This note sets out measurements from patent US10829501B2 (BRISTOL-MYERS SQUIBB COMPANY, priority 2016, dated 2020).

Like-named read-outs stand apart in the source and are kept apart here. Some results are limits rather than exact numbers.

This experiment concerns the target ROCK2 (Homo sapiens, UniProt O75116). The experiment can be described thus: ROCK2 kinase inhibition assay (LABCHIP 3000 Reader, FITC peptide substrate).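 Also: rho kinase reaction read by separating phosphorylated from unphosphorylated peptide on chip, with inhibition of kinase activity computed per concentration across a dose-response series.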
Where [1] appears, read: read-out: ROCK2 Activity (ROCK2 IC50), 5 μM ATP, 1.5 μM peptide substrate, pH 7.5.

Chain of ROCK2 (O75116 whole entry, species assumed): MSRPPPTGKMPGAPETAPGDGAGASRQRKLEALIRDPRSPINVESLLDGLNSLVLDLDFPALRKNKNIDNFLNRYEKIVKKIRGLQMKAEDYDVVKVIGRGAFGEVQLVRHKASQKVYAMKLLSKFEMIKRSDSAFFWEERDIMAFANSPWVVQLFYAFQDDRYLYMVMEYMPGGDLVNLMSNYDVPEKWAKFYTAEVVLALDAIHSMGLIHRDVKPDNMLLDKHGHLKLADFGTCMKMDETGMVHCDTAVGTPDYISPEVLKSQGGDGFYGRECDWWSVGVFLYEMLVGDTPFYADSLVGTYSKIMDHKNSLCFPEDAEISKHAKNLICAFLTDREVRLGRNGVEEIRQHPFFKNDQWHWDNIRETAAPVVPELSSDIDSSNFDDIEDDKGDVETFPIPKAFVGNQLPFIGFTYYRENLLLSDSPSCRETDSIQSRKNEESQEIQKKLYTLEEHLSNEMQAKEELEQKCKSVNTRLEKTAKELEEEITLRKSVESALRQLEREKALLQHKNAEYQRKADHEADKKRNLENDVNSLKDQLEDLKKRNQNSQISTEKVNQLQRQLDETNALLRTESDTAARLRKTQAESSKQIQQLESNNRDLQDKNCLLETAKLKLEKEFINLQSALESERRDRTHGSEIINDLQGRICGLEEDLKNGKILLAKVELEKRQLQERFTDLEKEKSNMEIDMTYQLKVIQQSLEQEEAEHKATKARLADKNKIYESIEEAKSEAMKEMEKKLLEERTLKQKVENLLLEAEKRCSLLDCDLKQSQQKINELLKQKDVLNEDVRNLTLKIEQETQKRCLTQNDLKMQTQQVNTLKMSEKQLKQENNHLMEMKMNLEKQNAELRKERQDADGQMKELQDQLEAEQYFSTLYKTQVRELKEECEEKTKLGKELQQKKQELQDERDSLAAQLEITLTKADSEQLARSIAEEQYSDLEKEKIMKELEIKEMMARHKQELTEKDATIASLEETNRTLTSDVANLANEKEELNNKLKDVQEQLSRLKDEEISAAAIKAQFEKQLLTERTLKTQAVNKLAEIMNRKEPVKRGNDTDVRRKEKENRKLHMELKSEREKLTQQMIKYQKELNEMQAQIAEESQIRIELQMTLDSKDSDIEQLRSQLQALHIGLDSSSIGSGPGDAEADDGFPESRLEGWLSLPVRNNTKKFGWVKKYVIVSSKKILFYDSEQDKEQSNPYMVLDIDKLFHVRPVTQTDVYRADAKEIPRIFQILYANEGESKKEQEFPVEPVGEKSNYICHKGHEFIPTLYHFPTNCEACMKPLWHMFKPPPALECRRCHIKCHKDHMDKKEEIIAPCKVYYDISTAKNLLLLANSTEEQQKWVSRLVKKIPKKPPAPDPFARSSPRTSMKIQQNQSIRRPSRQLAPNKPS

With `NC(=O)c1cccnc1OC1CC2(CC(NC(=O)c3nc(C(F)(F)F)n4ccccc34)C2)C1` [Example 430, N-((aR)-6-((3-carbamoylpyridin-2-yl)oxy)spiro[3.3]heptan-2-yl)-3-(trifluoromethyl)imidazo[1,5-a]pyridine-1-carboxamide], the half-inhibitory concentration (IC50) under setting [1] was in the range of 5 to 50 nM.

In the case of `NC(=O)c1cccnc1OC1CC2(CC(NC(=O)c3nc(C(F)(F)F)n4cc(OCc5ccccc5)ccc34)C2)C1` [Example 431, 6-(benzyloxy)-N-((aR)-6-((3-carbamoylpyridin-2-yl)oxy)spiro[3.3]heptan-2-yl)-3-(trifluoromethyl)imidazo[1,5-a]pyridine-1-carboxamide], the concentration for half-maximal inhibition (IC50) under setting [1] lay within 5 to 50 nM.

In the case of `NC(=O)c1cccnc1OC1CC2(CC(NC(=O)c3nc(C(F)(F)F)n4cc(OS(=O)(=O)C(F)(F)F)ccc34)C2)C1` [Example 432, 1-(((aR)-6-((3-carbamoylpyridin-2-yl)oxy)spiro[3.3]heptan-2-yl)carbamoyl)-3-(trifluoromethyl)imidazo[1,5-a]pyridin-6-yl Trifluoromethanesulfonate], under setting [1], the IC50 fell in the range of 5 to 50 nM.

As to `Cn1cc(-c2ccc3c(C(=O)NC4CC5(C4)CC(Oc4ncccc4C(N)=O)C5)nc(C(F)(F)F)n3c2)cn1` [Example 433, N-((aR)-6-((3-carbamoylpyridin-2-yl)oxy)spiro[3.3]heptan-2-yl)-6-(1-methyl-1H-pyrazol-4-yl)-3-(trifluoromethyl)imidazo[1,5-a]pyridine-1-carboxamide], under setting [1], the IC50 is under 5 nM.

On to `CC(C)(O)COc1ccc2c(C(=O)NC3CC4(C3)CC(Oc3ncccc3C(N)=O)C4)nc(C(F)(F)F)n2c1` [Example 434, N-((aR)-6-((3-carbamoylpyridin-2-yl)oxy)spiro[3.3]heptan-2-yl)-6-(2-hydroxy-2-methylpropoxy)-3-(trifluoromethyl)imidazo[1,5-a]pyridine-1-carboxamide], for which the IC50 under setting [1] was 5 to 50 nM.

Turning to `NC(=O)c1cccnc1OC1CC2(CC(NC(=O)c3nc(C(F)F)n4cc(OCc5ccccc5)ccc34)C2)C1` [Example 435, 6-(benzyloxy)-N-((aR)-6-((3-carbamoylpyridin-2-yl)oxy)spiro[3.3]heptan-2-yl)-3-(difluoromethyl)imidazo[1,5-a]pyridine-1-carboxamide], the IC50 under setting [1] is under 5 nM.

`Cc1ncc(-c2ccc3c(C(=O)NC4CC5(C4)CC(Oc4ncccc4C(N)=O)C5)nc(C(F)F)n3c2)s1` [Example 436, N-((aR)-6-((3-carbamoylpyridin-2-yl)oxy)spiro[3.3]heptan-2-yl)-3-(difluoromethyl)-6-(2-methylthiazol-5-yl)imidazo[1,5-a]pyridine-1-carboxamide] showed an IC50 of under 5 nM.

`Cn1cncc1-c1ccc2c(C(=O)NC3CC4(C3)CC(Oc3ncccc3C(N)=O)C4)nc(C(F)F)n2c1` [Example 437, N-((aR)-6-((3-carbamoylpyridin-2-yl)oxy)spiro[3.3]heptan-2-yl)-3-(difluoromethyl)-6-(1-methyl-1H-imidazol-5-yl)imidazo[1,5-a]pyridine-1-carboxamide]: the IC50 under setting [1] is 5 to 50 nM.

`Cn1cc(-c2ccc3c(C(=O)NC4CC5(C4)CC(Oc4ncccc4C(N)=O)C5)nc(C(F)F)n3c2)c(C(F)(F)F)n1` [Example 438, N-((aR)-6-((3-carbamoylpyridin-2-yl)oxy)spiro[3.3]heptan-2-yl)-3-(difluoromethyl)-6-(1-methyl-3-(trifluoromethyl)-1H-pyrazol-4-yl)imidazo[1,5-a]pyridine-1-carboxamide]: the IC50 lay in the range of 5 to 50 nM.

Consider `Cn1cc(-c2ccc3c(C(=O)NC4CC5(C4)CC(Oc4ncccc4C(N)=O)C5)nc(C(F)F)n3c2)cn1` [Example 439, N-((aR)-6-((3-carbamoylpyridin-2-yl)oxy)spiro[3.3]heptan-2-yl)-3-(difluoromethyl)-6-(1-methyl-1H-pyrazol-4-yl)imidazo[1,5-a]pyridine-1-carboxamide], for which the IC50 under setting [1] is under 5 nM.
